Data on eleven molecules can be found in patent EP4389749A1, “SUBSTITUTED 3,7-DIHYDRO-1H-PURINE-2,6-DIONES AND USE THEREOF” (invIOs GmbH, priority 2022, dated 2024).

The test system of one experiment is CD4+ T-cells. In words: Immunostimulation assay with anti-CD3/28 stimulated T-cells, CD69 expression by flow cytometry. It counts as cell-based, human. The note with it: T-cell; purified human CD4+ and CD8+ T-cells, 1 µg/ml anti-CD3, 1 µg/ml anti-CD28, 16 hours, surface FACS; read-out: EC50 CD4+. The protocol: (§1) Selection of potent compounds based on structure activity relation (SAR) using human, anti-CD3/28 stimulated T-cells. Enhanced activation of stimulated T-cells is measured by CD69 expression by flowcytometry.
(§2) White blood cell enriched buffy coats were ordered from the Austrian red cross, diluted with PBS to a total volume of 480 ml, 30 ml transferred to 50ml falcons and 11 ml lymphoprep added. Cell suspensions were centrifuged for 20 min at 2200 rpm and the PBMC containing layer transferred, three times washed with PBS and counted.
(§3) 10^7 PBMCs were magnetically labeled with CD4 and CD8 microbeads according to manufacturer's instructions and separated using autoMACS device. For dose response experiments with purified CD4+CD8+ T-cells 80000 cells were seeded per 96-well flat bottom cell culture dish.
(§4) 10 mM compounds of the invention stocks were further diluted using DMSO and equal amounts transferred to T-cell containing 96-wells. Final concentrations tested were: 30 µM, 10 µM, 3 µM, 1 µM, 0.3 µM, 0.1 µM, 0.03 µM, 0.01 µM, 0.003 µM and 0.001 µM.
(§5) For the stimulation assays 80.000 purified CD4+ and CD8+ T-cells were seeded per 96-well and incubated with 1 µg/ml anti-CD3, 1 µg/ml anti-CD28 and compounds of the invention ranging from 0.001 µM to 30 µM. DMSO only wells served as control to determine minimal T-cell activation upon stimulation and CD3/28 coupled Dynabeads were used to determine the maximal activation of T-cells. Cells were cultured for 16 hours in a humidified incubator at 37 °C and 5 % CO2.
(§6) T-cells were stained for surface antigens (anti-CD4 and anti-CD8) and cell activation markers (anti-CD25 and anti-CD69). Additionally, a fixable viability dye was used to stain viable cells. Staining was performed for 15 minutes and cells analyzed using a Fortessa flow cytometer and FlowJo Software. EC50s were calculated using GraphPad Prism® and a variable slope model (agonist vs. response - variable slope).
(Flow cytometry measures light scatter and fluorescence of single cells or particles in a stream.)

Another experiment deals with CD8+ T-cells. Described as above. Format: cell-based, human. The note with it: T-cell; purified human CD4+ and CD8+ T-cells, 1 µg/ml anti-CD3, 1 µg/ml anti-CD28, 16 hours, surface FACS; read-out: EC50 CD8+. On the procedure: as §1, §2, §3, §4, §5, §6

A word on the EC50: it is the midpoint of the concentration-response curve. As to `COc1cc(-c2nc3c(c(=O)[nH]c(=O)n3CC(C)O)n2C)ccc1OCc1ccc(F)cc1` (stereo not shown) [Compound 87, 8-(4-((4-fluorobenzyl)oxy)-3-methoxyphenyl)-3-(2-hydroxypropyl)-7-methyl-3,7-dihydro-1H-purine-2,6-dione], the EC50 was 500 to 1000 nM in the experiment with CD4+ T-cells and 100 to 500 nM in the experiment on CD8+ T-cells.

Regarding `COc1cc(-c2nc3c(c(=O)[nH]c(=O)n3CC(C)O)n2C)ccc1OCc1ccc(Cl)cc1` (stereo not shown) [Compound 88, 8-(4-((4-chlorobenzyl)oxy)-3-methoxyphenyl)-3-(2-hydroxypropyl)-7-methyl-3,7-dihydro-1H-purine-2,6-dione], the EC50 with CD4+ T-cells and with CD8+ T-cells was 100 to 500 nM in each case.

For `COc1cc(-c2nc3c(c(=O)[nH]c(=O)n3CC(C)O)n2C)ccc1OCc1ccc(C(F)(F)F)cc1` (stereo not shown) [Compound 89, 3-(2-hydroxypropyl)-8-(3-methoxy-4-((4-(trifluoromethyl)benzyl)oxy)phenyl)-7-methyl-3,7-dihydro-1H-purine-2,6-dione], the EC50 is 500 to 1000 nM with CD4+ T-cells and 100 to 500 nM with CD8+ T-cells.

Regarding `COc1cc(-c2nc3c(c(=O)[nH]c(=O)n3CC(C)O)n2C)ccc1OCc1ccc(C#N)cc1` (stereo not shown) [Compound 90, 4-((4-(3-(2-hydroxypropyl)-7-methyl-2,6-dioxo-2,3,6,7-tetrahydro-1H-purin-8-yl)-2-methoxyphenoxy)methyl)benzonitrile], the results for the 50% effective concentration (EC50) with CD4+ T-cells and in the experiment with CD8+ T-cells were 100 to 500 nM and 500 to 1000 nM, respectively.

`CC(O)Cn1c(=O)[nH]c(=O)c2c1nc(-c1ccc(OCc3ccc(F)cc3)c(Cl)c1)n2C` (stereo not shown) [Compound 91, 8-(3-chloro-4-((4-fluorobenzyl)oxy)phenyl)-3-(2-hydroxypropyl)-7-methyl-3,7-dihydro-1H-purine-2,6-dione]: the concentration for a half-maximal effect (EC50) with CD4+ T-cells and with CD8+ T-cells was 100 to 500 nM in each case.

Regarding `CC(O)Cn1c(=O)[nH]c(=O)c2c1nc(-c1ccc(OCc3ccc(F)c(F)c3)c(F)c1)n2C` (stereo not shown) [Compound 92, 8-(4-((3,4-difluorobenzyl)oxy)-3-fluorophenyl)-3-(2-hydroxypropyl)-7-methyl-3,7-dihydro-1H-purine-2,6-dione], the EC50 in the experiment with CD4+ T-cells and in the experiment on CD8+ T-cells was 1000 to 5000 nM each time.

On to `CC(O)Cn1c(=O)[nH]c(=O)c2c1nc(-c1ccc(OCc3ccc(Cl)c(F)c3)c(F)c1)n2C` (stereo not shown) [Compound 93, 8-(4-((4-chloro-3-fluorobenzyl)oxy)-3-fluorophenyl)-3-(2-hydroxypropyl)-7-methyl-3,7-dihydro-1H-purine-2,6-dione], for which the 50% effective concentration (EC50) fell in the range of 1000 to 5000 nM with CD4+ T-cells and 500 to 1000 nM in the experiment on CD8+ T-cells.

As to `COc1cc(-c2nc3c(c(=O)[nH]c(=O)n3CC(O)CO)n2C)ccc1OCc1ccc(C)cc1` (stereo not shown) [Compound 94, 3-(2,3-dihydroxypropyl)-8-(3-methoxy-4-((4-methylbenzyl)oxy)phenyl)-7-methyl-3,7-dihydro-1H-purine-2,6-dione], the EC50 with CD4+ T-cells and in the experiment with CD8+ T-cells was 1000 to 5000 nM throughout.

On to `Cc1ccc(COc2ccc(-c3nc4c(c(=O)[nH]c(=O)n4CC(O)CO)n3C)cc2F)cc1` (stereo not shown) [Compound 95, 3-(2,3-dihydroxypropyl)-8-(3-fluoro-4-((4-methylbenzyl)oxy)phenyl)-7-methyl-3,7-dihydro-1H-purine-2,6-dione], for which the EC50 with CD4+ T-cells and in the experiment on CD8+ T-cells was 1000 to 5000 nM in each case.

Take `Cc1ccc(COc2ccc(-c3nc4c(c(=O)[nH]c(=O)n4CC(O)CF)n3C)cc2F)cc1` (stereo not shown) [Compound 96, 3-(3-fluoro-2-hydroxypropyl)-8-(3-fluoro-4-((4-methylbenzyl)oxy)phenyl)-7-methyl-3,7-dihydro-1H-purine-2,6-dione]: the concentration for a half-maximal effect (EC50) in the experiment with CD4+ T-cells and in the experiment on CD8+ T-cells was 100 to 500 nM throughout.

With `Cc1ccc(COc2ccc(-c3nc4c(c(=O)[nH]c(=O)n4CC(C)CO)n3C)cc2F)cc1` (stereo not shown) [Compound 97, 8-(3-fluoro-4-((4-methylbenzyl)oxy)phenyl)-3-(3-hydroxy-2-methylpropyl)-7-methyl-3,7-dihydro-1H-purine-2,6-dione], the 50% effective concentration (EC50) in the experiment with CD4+ T-cells and in the experiment with CD8+ T-cells was 100 to 500 nM throughout.
